Converted amounts (≈) assume the structure as drawn. Like-named read-outs stand apart in the source and are kept apart here. Bridge positions count the residues as written; N and C are the ends. Square brackets hold non-standard residues; d marks the D form. Peptide text beside a SMILES is read from it. I, II: the chains in the order shown. Ahx = NCCCCCC(=O)O

Data set [1] has as its system HTB-132 cell line. Kind of data set: MTT viability test, HTB-132 cells. The format is cell-based, human. To be noted: for IC50, cytotoxic effect, HTB-132: 24 h at 37 °C, mean of n = 3. As for the experimental part: (§1) For all cell lines, the medium used was Dulbecco’s Modified Eagle’s Medium (DMEM)/Nutrient Mixture F-12 Ham. For the HTB-132, MCF-7, and MCF-12A lines, the medium was supplemented with 10% fetal bovine serum (SFB), and 1.5 g/L NaHCO3 and NaOH were added up to pH 7.4, amphotericin (200 μg/mL), and 1% penicillin and streptomycin. For the primary culture cells of bovine mammary epithelium and fibroblasts, in addition to the above, hydrocortisone (250 μg/mL) was added. All media were filtered through a 0.22 μm membrane.
(§2) Briefly, the cells were seeded with a complete medium in 96-well plates at a rate of 10,000 cells and 100 µL per well, and adhesion to the plates was allowed for 24 h. Subsequently, the complete medium was removed and an incomplete medium was added for synchronization for another 24 h. The cells were then incubated at 37 °C for 2, 24, or 48 h with 100 μL of peptide at the concentrations to be evaluated (200, 100, 50, 25, 12.5, 6.25 and 3.1 μg/mL). Next, the peptide was removed from the box, and 100 µL of incomplete medium with 10% 3-4,5-dimethylthiazol-2-yl-2,5-diphenyltetrazole (MTT) bromide was added and incubated for 4 h. The medium was replaced with 100 μL of isopropanol (IPA), and after 30 min of incubation at 37 °C, the absorbance was measured at 575 nm. As a negative control, an incomplete culture medium with 10% MTT was used, and as a positive control, cells without MTT treatment were used.

The test system of another data set is MCF-7 cell line. Kind of data set: MTT viability test, MCF-7 cells. The format is cell-based, human. As for the experimental part:
as §1, §2
Background: Tetrazolium dyes change colour on reduction, which living cells bring about.

The subject of another data set is MCF-12 cell line. The data set is classed as cell-based, human. As to the method:
as §1, §2

In data set [2] the test system is MCF-7 cells. In words: Integrity of the cytoplasmic membrane, SYTO9/PI flow cytometry. The format is cell-based, human. As to conditions: MCF-7, peptide 15 µM, PI and SYTO9. For orientation: A flow cytometer gives signals particle by particle.
Protocol: The cells with complete medium were seeded and synchronized in boxes of 24 wells in a concentration of 4 × 10^4 cells/well in a volume of 400 μL/well, and adhesion to the plate was allowed for 24 h [52]. Then the complete medium was replaced by incomplete medium for synchronization of the cells for an additional 24 h. […] The cells were harvested by adding 200 μL of trypsin and incubating for 10 min. The trypsin was quenched with 200 µL of complete medium, and the cells were centrifuged at 2500 rpm for 10 min. The supernatant was discarded, and the pellet was washed with 100 µL PBS and centrifuged under the same conditions previously described. The supernatant was discarded, and the cells were stained with 30 μL of a solution from the LIVE/DEAD® FungaLigthTM commercial kit (Invitrogen) containing the mixture of fluorochromes (0.5 μL of SYTO9 and/or 0.5 μL of propidium iodide (PI) with 99 μL of PBS). Subsequently, the cells were incubated at room temperature and in the dark for 20 min and centrifuged, and the supernatant was discarded. The pellet was resuspended in 100 μL of PBS and analyzed via flow cytometry in a BD Accuri C6 device. The events were recorded using the green channel (FL1) on the abscissa axis and the red (FL3) on the ordinate axis. Negative control: untreated cells marked with both fluorophores; positive control: cells treated with actinomycin 10 μg/mL for 24 h [52]. […]
The test system of data set [3] is MCF-7 cells. In words: Type of cell death (apoptosis/necrosis), Annexin V/PI flow cytometry. To be noted: MCF-7, peptide 15 µM, 24 h, annexin V and PI. The format is cell-based, human. As to the method:
The cells were seeded and synchronized in boxes of 24 wells at a concentration of 4 × 10^4 cells/well in 400 μL/well, adhesion and synchronization were allowed in the same way as in Section 4.8, and the culture medium was replaced with medium containing the peptide to be evaluated and incubated for 2 or 24 h. Subsequently, the cells were harvested with trypsin, centrifuged at 2500 rpm for 10 min, washed with PBS, and resuspended in 10 μL of staining buffer with the fluorochromes (10 mM Hepes pH 7.4; 10 mM NaCl and 2.5 mM CaCl2 containing 1 μL of PI fluorochrome and 1 μL of Annexin V). Cells with the fluorochromes were incubated at 37 °C in the dark for 15 min and resuspended in 80 μL of staining buffer without fluorochromes for analysis via flow cytometry. The positive control of necrosis was: cells treated with EDTA 15 mM for 60 min, and apoptotic: cells treated with Actinomycin at 10 μM for 24 h. Negative control: cells without treatment; compensation controls: (i) cells stained only with Annexin, and (ii) only with PI; population control: unstained and untreated cells.

Data set [4] concerns MCF-7 cells. In words: Mitochondrial membrane depolarization, JC-1 flow cytometry. The data set is classed as cell-based, human. As to conditions: MCF-7, peptide 15 µM.
Protocol: For this test, the MitoProbeTM JC-1 Assay kit (M34152 from Termofisher, Walthan, MA, USA) was used according to the supplier’s recommendations. The cells seeded and synchronized in a box of 24 wells (4 × 10^4 cells/well) were incubated with 400 μL of peptide to be evaluated at 2 and 24 h. The cells were then trypsinized and collected by centrifugation at 400 g × 5 min. The resulting pellet was stained by adding 100 μL of JC1 “working solution” (1:100 JCI solution reconstituted in DMSO: buffer assay 1×) and incubated at 37 °C for 20 min. Subsequently, the cells were washed twice with 1× buffer assay and finally resuspended in 100 μL of 1× buffer assay for reading on the cytometer. Negative control: cells without treatment; positive control: cells treated with 10 μM actinomycin for 24 h.
Data set [5] has as its system MCF-7 cells. In words: Cell morphology and size by inverted microscope. The format is cell-based, human. To be noted: MCF-7, 90 min of treatment, 37 °C; from 100.27 μm before; average of 100 measurements; Figure 3: 100 µg/mL. As to the method: Cell morphology was monitored before and after treatment with ^26[L] or ^26[F] at different times, using an inverted microscope coupled to an AxioCam ICc1 camera (Figure 3). The untreated cells had normal morphologic characteristics as polygonal, flattened, and elongated cells with long and defined axons (data not shown). After 5 min of treatment with the peptide, most cells retained their morphology; however, some began to appear rounded and shrunken. After 90 min, the cells treated with the peptide (^26[L] or ^26[F]) took on a rounded shape, and shrinkage was observed, going from an average size of 100.27 μm to 39.38 µm. […] At 24 h of treatment, the appearance of small vacuoles was observed, presumably associated with late apoptosis events. Finally, it was observed that the effect of the peptide was sustained up to 48 h since at that time no recovery of cell morphology was observed.
Figure 3 Micrography of MCF-7 cells treated with peptide ^26[F] at 100 µg/mL. The cells were incubated in the absence (A) or the presence of the peptide at (B) 5 min, (C) 90 min, (D) 240 min, (E) 24 h, and (F) 48 h at 37 °C. The cell size was determined as an average of 100 measurements, using an AxioCam ICc1 camera.

For data set [6], the system named is breast cancer cell lines HTB-132 and MCF-7. The data set is classed as cell-based, human. To be noted: 24 h. As for the experimental part: as §2
The next data set is described as follows: Stability during storage. The data set is classed as physicochemical. To be noted: Met residue prone to oxidation; Supplementary Figure S1.
Data set [7] relates to HTB-132 cell line. Kind of data set: MTT viability test, HTB-132 cells. The format is cell-based, human. To be noted: 24 h, concentration range 1–100 µg/mL.
Data set [8] deals with MDA-MB 231 breast cancer cells. As to conditions: peptide 100 µg/mL (30 µM); earlier work, ref not given; cited from earlier work. The source says:
(§3) Breast cancer is the most common cancer type diagnosed worldwide. There are 2.1 million cases annually, and 627,000 deaths of women due to this disease were reported in 2018 [5]. […] However, when this motif was modified or included in longer sequences, the cytotoxic effect against human cancer cell lines increased. In ...

For data set [9], the system named is MDA-MB 468 breast cancer cells. As to conditions: peptide 100 µg/mL (30 µM); earlier work, ref not given; cited from earlier work.
From the text: as §3

Setting [10] is: MTT, 24 h at 37 °C, three independent experiments with n = 4 each.

Broadly, the IC50 is the point on the concentration scale where inhibition reaches its midpoint. As for `CC(C)C[C@H](NC(=O)[C@H](CCCCN)NC(=O)[C@H](CCCCN)NC(=O)[C@H](Cc1ccccc1)NC(=O)[C@H](CCCNC(=N)N)NC(=O)[C@H](Cc1c[nH]c2ccccc12)NC(=O)[C@H](CCC(N)=O)NC(=O)[C@H](Cc1c[nH]c2ccccc12)NC(=O)[C@H](CCCNC(=N)N)NC(=O)[C@@H](N)CCCNC(=N)N)C(=O)NCC(=O)NCCCC[C@H](NC(=O)CNC(=O)[C@H](CC(C)C)NC(=O)[C@H](CCCCN)NC(=O)[C@H](CCCCN)NC(=O)[C@H](Cc1ccccc1)NC(=O)[C@H](CCCNC(=N)N)NC(=O)[C@H](Cc1c[nH]c2ccccc12)NC(=O)[C@H](CCC(N)=O)NC(=O)[C@H](Cc1c[nH]c2ccccc12)NC(=O)[C@H](CCCNC(=N)N)NC(=O)[C@@H](N)CCCNC(=N)N)C(=O)NCCCCCC(N)=O` [^26[F], (RRWQWRFKKLG)2-K-Ahx] (I: H-RRWQWRFKKLGK[Ahx]-NH2 / II: H-RRWQWRFKKLG; amide I:12-II:C), in the data set on HTB-132 cell line [1] (MTT, 24 h), the “cytotoxic effect against HTB-132 compared with ^26[M] (in words)” value is given as “greater cytotoxic effect against cancer cells than the original peptide”. Further, the “IC50, cytotoxic effect, HTB-132” value with HTB-132 cell line [1] (MTT) is 43 µg/mL (≈ 12.9 µM). Further, the half-inhibitory concentration (IC50) is 13 µM with HTB-132 cell line [1] (human, 24 h, pH 7.4); 6 µM with MCF-7 cell line (human, 24 h, pH 7.4); 21 µM in the data set on MCF-12 cell line (24 h); 6 to 13 µM in data set [6]. In addition, in the data set on MCF-7 cell line (MTT, 24 h), the “cytotoxic effect against MCF-7 compared with ^26[M] (in words)” value was “greater cytotoxic effect against MCF-7 cells than the peptide”. Besides, in the data set on MCF-7 cell line (setting [10]), the “IC50, cytotoxic effect, MCF-7” value is on record as 19 µg/mL (≈ 5.68 µM). Moreover, the “maximum cytotoxic effect, MCF-7” value in the data set on MCF-7 cell line (MTT, peptide 200 µg/mL, regardless of treatment time (2, 24, 48 h)) is recorded as “approximately 90%”. Moreover, the “cytotoxic effect against MCF-12 compared with HTB-132 and MCF-7 (in words)” value in the data set with MCF-12 cell line is given as “lower cytotoxic effect against MCF-12 cells than against breast cancer cell lines”. Moreover, in the data set with MCF-12 cell line (MTT, 24 h at 37 °C), the “IC50, non-tumorigenic cell line MCF-12” value is reported as 70 µg/mL (≈ 20.9 µM). In addition, the “cell population with cytoplasmic membrane affected” value in the data set with MCF-7 cells [2] is 10%. Besides, the “cell population dyed with both fluorophores (apoptotic process)” value in the data set on MCF-7 cells [3] is listed as 54%. Besides, the “cell population dyed with only PI (necrotic process)” value with MCF-7 cells [3] is 21%. Moreover, in the data set on MCF-7 cells [4], the “population with depolarization of the mitochondrial membrane” value is 19%. In the data set on MCF-7 cells [5], the “average cell size after treatment” value was 39.38 µm.
For `CSCC[C@H](NC(=O)[C@H](CCCNC(=N)N)NC(=O)[C@H](Cc1c[nH]c2ccccc12)NC(=O)[C@H](CCC(N)=O)NC(=O)[C@H](Cc1c[nH]c2ccccc12)NC(=O)[C@H](CCCNC(=N)N)NC(=O)[C@@H](N)CCCNC(=N)N)C(=O)N[C@@H](CCCCN)C(=O)N[C@@H](CCCCN)C(=O)N[C@@H](CC(C)C)C(=O)NCC(=O)NCCCC[C@H](NC(=O)CNC(=O)[C@H](CC(C)C)NC(=O)[C@H](CCCCN)NC(=O)[C@H](CCCCN)NC(=O)[C@H](CCSC)NC(=O)[C@H](CCCNC(=N)N)NC(=O)[C@H](Cc1c[nH]c2ccccc12)NC(=O)[C@H](CCC(N)=O)NC(=O)[C@H](Cc1c[nH]c2ccccc12)NC(=O)[C@H](CCCNC(=N)N)NC(=O)[C@@H](N)CCCNC(=N)N)C(=O)NCCCCCC(N)=O` [^26[M], (RRWQWRMKKLG)2-K-Ahx] (I: H-RRWQWRMKKLGK[Ahx]-NH2 / II: H-RRWQWRMKKLG; amide I:12-II:C), in the data set on HTB-132 cell line [1] (MTT), the “IC50, cytotoxic effect, HTB-132” value was 96 µg/mL (≈ 29 µM). Also, the “cytotoxic effect against MCF-7 (in words)” value in the data set on MCF-7 cell line (MTT, 24 h) was “does not exhibit a significant cytotoxic effect”. Besides, in the data set with MCF-7 cell line (setting [10]), the “IC50, cytotoxic effect, MCF-7” value is listed as over 200 µg/mL. For the same compound, in the data set on MCF-7 cell line (MTT, 24 h at 37 °C, three independent experiments with n = 4 each, read-out: IC50, cytotoxic effect, MCF-7), the half-inhibitory concentration (IC50) is over 60 µM. Besides, in the data set “Stability during storage”, the “stability during storage (in words)” value is “stability problems”. Besides, the “cytotoxic effect at the maximum evaluated concentration, HTB-132” value with HTB-132 cell line [7] is given as about 55%. Also, in data set [8], the “cellular viability, MDA-MB 231” value is ~ 0% and the “cytotoxic effect, MDA-MB 231” value is on record as about 100%. For the same compound, in data set [9], the “cellular viability, MDA-MB 468” value was ~ 0% and the “cytotoxic effect, MDA-MB 468” value is on record as about 100%.

Source of the values: publication PMC7352952, “Peptides Derived from (RRWQWRMKKLG)2-K-Ahx Induce Selective Cellular Death in Breast Cancer Cell Lines through Apoptotic Pathway” (International Journal of Molecular Sciences, 2020).
